# Results taken from patent publication US20240270745A1, “ISOQUINOLINE ALKALOID COMPOUND, AND PREPARATION METHOD THEREFOR AND USE THEREOF” (SHANGHAI INSTITUTE OF MATERIA MEDICA, CHINESE ACADEMY OF …, priority 2021, published 2024).
# Experiments:
# [1] = biological target: T1, TRESK (KCNK18) (Homo sapiens, UniProt Q7Z418); conditions: in neurons; read-out: half-effective dose for inhibition of TRESK channels; cited from earlier work
# T1 sequence (Q7Z418 1-384): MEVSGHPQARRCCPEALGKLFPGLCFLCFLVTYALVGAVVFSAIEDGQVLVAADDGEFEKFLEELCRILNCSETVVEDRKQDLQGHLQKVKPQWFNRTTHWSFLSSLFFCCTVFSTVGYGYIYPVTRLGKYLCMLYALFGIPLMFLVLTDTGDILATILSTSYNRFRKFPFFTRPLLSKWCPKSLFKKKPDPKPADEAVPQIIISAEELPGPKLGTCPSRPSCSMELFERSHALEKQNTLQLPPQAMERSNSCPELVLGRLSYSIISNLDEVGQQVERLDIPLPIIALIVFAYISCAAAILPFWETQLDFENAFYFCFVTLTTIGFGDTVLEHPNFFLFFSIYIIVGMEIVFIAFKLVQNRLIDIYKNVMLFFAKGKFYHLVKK
# [2] = tested on: TASK1/TASK3 (KCNK3/KCNK9); conditions: in neurons; read-out: half-effective dose for inhibition of TASK1/TASK3 channels; cited from earlier work
# [3] = tested on: hippocampal neurons; assay: Spontaneous firing of cultured hippocampal neurons (patch clamp); type: cell-based, SD rats; conditions: 10 μM, FIG. 1 A and B
# Procedure: (§1) Whole-cell patch clamp recording was performed through a digital-to-analog converter, the Digidata 1440A (Axon CNS), and a patch clamp amplifier, the Axon patch 700B (Molecular Devices), and the borosilicate glass electrode used in the manual patch clamp experiment was pulled by a Sutter-P1000 electrode puller (Sutter) with a resistance about 3 MΩ. The bath solution was continuously perfused in speed of about 2 mL/min using a BPS perfusion system.
# Enzyme and termination solutions with the same concentration were prepared with PBS. 90% DMEM/F12 supplemented with 10% FBS, neuron culture medium (2% B-27, 1% penicillin and streptomycin mixture, Neurobasal-A supplemented with 0.5 mM 1% GlutaMAX), and enzyme and termination solutions (all purchased from Gibco) were preheated in advance. The slides were coated in a 24-well plate in advance with 20 μg/mL polylysine. All operations were performed in a biological safety cabinet. 3 newly born SD rats that were 1-3 days old were taken out the hippocampus according to the above method. The hippocampus was cut into pieces with microdissecting scissors and digested for 8 minutes in the enzyme solution, which was slightly shaken every 2-3 minutes to make the digestion even. […] The suspension was counted on a cell counter, and adjusted to a final concentration of 10^5 cells/mL. […]
# [4] = tested on: dorsal root ganglion (DRG) neurons; assay: Evoked action potential firing in dorsal root ganglion neurons (whole-cell patch clamp); type: cell-based, C57BL/6 mouse; conditions: 10 μM; 200 pA, 500 ms current stimulation; FIG. 1 C and D
# Text: (§2) A 4- to 6-week old C57BL/6 mouse (Shanghai Slack Experimental Animal Co., Ltd.) was used for acute isolation of dorsal root ganglion neurons. First, the mouse was sacrificed by breaking the neck, and the surface skin was disinfected with 75% alcohol. The skin was cut from the neck to the buttocks, and the spine from the neck to the waist was cut, and placed in a pre-cooled phosphate buffer (PBS) (Hyclone Company) after excess muscles and blood clots were removed. The spine was cut longitudinally along the midline, and the white spinal cord and blood clots in the middle were removed by ophthalmic tweezers to expose the intervertebral foramen. The dorsal root ganglia were taken out by fine forceps, wherein the large ganglia at the waist should be stripped of their fibrous connections. Then the ganglia were cut into small pieces with microdissection scissors, added to 1 mL of a mixture of collagenase (1 mg/mL) and trypsin (0.25 mg/mL) (Sigma-Aldrich Company) for digestion for 15 min. Then a DMEM/F12 culture medium (Gibco Company) supplemented with 10% fetal calf serum was added thereto to terminate the digestion and dilute the resultant. The cells were pipetted repeatedly, and large tissue blocks were filtered out with a 70 μM cell filter. The remaining liquid was inoculated into a glass slide pre-coated with poly-lysine (Sigma-Aldrich), and cultured in an incubator at 5% CO2 and 37° C. […]
# [5] = tested on: IK current in DRG neurons; assay: Delayed inward rectifier potassium current (IK) in DRG neurons; type: cell-based, C57BL/6 mouse
# Text: as §2, with “min.” for “min. Then a DMEM/F12 culture medium (Gibco Company) supplemented with 10% fetal calf serum was added thereto to terminate the digestion and dilute the resultant. The cells were pipetted repeatedly, and large tissue blocks were filtered out with a 70 μM cell filter. The remaining liquid was inoculated into a glass slide pre-coated with poly-lysine (Sigma-Aldrich), and cultured in an incubator at 5% CO2 and 37° C.”
# (§3) The data were processed through Clampfit 10.2, and imported into an Excel table for statistics, and then sorted and analyzed for their significant differences through GraphPad Prim5 software. […] All electrophysiological experiment data were expressed as mean±standard error (mean±S.E.M.).
# [6] = tested on: IA current in DRG neurons; assay: Transient outward potassium current (IA) in DRG neurons; type: cell-based, C57BL/6 mouse; conditions: whole-cell patch clamp; IA = total minus IK; 3 μM and 10 μM in FIG. 2
# Text: as §2, with “min.” for “min. Then a DMEM/F12 culture medium (Gibco Company) supplemented with 10% fetal calf serum was added thereto to terminate the digestion and dilute the resultant. The cells were pipetted repeatedly, and large tissue blocks were filtered out with a 70 μM cell filter. The remaining liquid was inoculated into a glass slide pre-coated with poly-lysine (Sigma-Aldrich), and cultured in an incubator at 5% CO2 and 37° C.”
# as §3
# [7] = tested on: IK current of hippocampal neurons; assay: Delayed inward rectifier potassium current (IK) in hippocampal neurons; type: cell-based, SD rats; conditions: 1, 3 and 10 μM, FIG. 3
# Procedure: as §1
# (§4) The cell were clamped at a holding voltage of −50 mV, hyperpolarized to −110 mV, and then directly depolarized to 40 mV after 600 ms to record the whole cell potassium current (ITotal). To record the delayed […] rectifier potassium current (IK), the cells were first depolarized to −50 mV, maintained for 50 ms, and then depolarized to 40 mV. 10 μM HJ-70 was administered by perfusion to detect drug efficacy, and 5 mM TEA was administered as a positive control. […]
# as §3
# [8] = tested on: IA current of hippocampal neurons; assay: Transient outward potassium current (IA) in hippocampal neurons; type: cell-based, SD rats; conditions: 1, 3 and 10 μM, FIG. 3
# Procedure: as §1
# as §4, with “mV.” for “mV. 10 μM HJ-70 was administered by perfusion to detect drug efficacy, and 5 mM TEA was administered as a positive control.”
# as §3
# [9] = tested on: sodium current in hippocampal neurons; assay: Sodium current in hippocampal neurons; type: cell-based, SD rats; conditions: 10 μM; membrane potential clamped at −90 mV
# Procedure: as §1
# 9 mg of protease (type XXIII, Sigma) was weighed in advance, 5 mg of bovine serum albumin (BSA, Shanghai Sangon) and 5 mg of trypsin inhibitor (Sigma-Aldrich) were weighed, and 3 mg/mL and 5 mg/mL enzyme and termination solutions were respectively prepared with a dissociation solution, and incubated at 32° C. water bath. 2 SD rats that were 1-7 days old (Shanghai Slack Experimental Animal Co., Ltd.) were decapitated and cut the cortex and skull to take out the complete brain, which was divided into two parts along the midline of the brain, and the hippocampus was located in the temporal lobe of the brain. The temporal lobe cortex was removed to expose the hippocampal gyrus for dissection. Then the hippocampus tissue was slightly moistened with the dissociation solution, and cut into thin slices transversely with a razor blade. […]
# [10] = biological target: T2, Kv2.1 channel (Homo sapiens, UniProt Q14721); assay: Kv2.1 channel current, transiently expressed in CHO-K1 cells (patch clamp); type: cell-based; conditions: 10 μM, FIG. 5 A and B
# T2 construct: expressed in transfected cells; host or cells: CHO-K1 cells (ATCC), transient co-transfection with EGFP plasmid at 9:1
# T2 sequence (Q14721 1-858): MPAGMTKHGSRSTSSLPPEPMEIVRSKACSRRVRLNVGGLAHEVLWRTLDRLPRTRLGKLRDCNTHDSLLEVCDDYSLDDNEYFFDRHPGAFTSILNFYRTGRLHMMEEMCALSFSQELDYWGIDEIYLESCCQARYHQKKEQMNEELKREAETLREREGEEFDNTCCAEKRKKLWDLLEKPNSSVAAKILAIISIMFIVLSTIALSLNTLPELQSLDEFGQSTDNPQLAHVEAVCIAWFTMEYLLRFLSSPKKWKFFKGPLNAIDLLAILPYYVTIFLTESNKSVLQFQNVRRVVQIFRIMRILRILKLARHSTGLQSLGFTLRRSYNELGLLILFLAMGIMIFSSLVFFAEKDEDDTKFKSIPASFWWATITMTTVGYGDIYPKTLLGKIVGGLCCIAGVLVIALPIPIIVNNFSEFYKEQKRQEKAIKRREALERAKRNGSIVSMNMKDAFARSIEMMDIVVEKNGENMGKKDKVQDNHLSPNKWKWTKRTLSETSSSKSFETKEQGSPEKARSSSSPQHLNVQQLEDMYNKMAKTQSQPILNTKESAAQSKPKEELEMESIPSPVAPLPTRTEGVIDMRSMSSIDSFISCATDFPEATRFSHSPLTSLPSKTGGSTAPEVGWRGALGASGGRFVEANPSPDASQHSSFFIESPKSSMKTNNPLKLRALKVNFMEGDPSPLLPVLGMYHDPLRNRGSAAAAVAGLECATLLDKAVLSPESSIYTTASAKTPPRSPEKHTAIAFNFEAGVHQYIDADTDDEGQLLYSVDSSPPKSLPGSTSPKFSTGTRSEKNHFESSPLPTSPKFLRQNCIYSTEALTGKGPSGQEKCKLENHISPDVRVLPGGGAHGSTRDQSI
# Text: (§5) First, TRESK plasmid (a kind gift from Professor Min LI of Johns Hopkins University) and Kv2.1 plasmid (a kind gift from Professor Min LI of Johns Hopkins University) were each co-transfected into CHO-K1 cells (ATCC) with green fluorescent protein EGFP plasmid (a kind gift from Professor Jia LI of SHANGHAI INSTITUTE OF MATERIA MEDICA, CHINESE ACADEMY OF SCIENCES) at a ratio of 9:1, and the cells with green fluorescence were selected under a fluorescence microscope to perform the experiments. The cells were clamped at −70 m V, first hyperpolarized to −130 mV, given a ramp depolarization stimulus to 20 mV, maintained for 100 ms, and then hyperpolarized to 0 mV to record the potassium channel current. 10 μM HJ-70 was administered by perfusion to test the drug efficacy thereof.
# [11] = biological target: T3, TRESK channel (Homo sapiens, UniProt Q7Z418); assay: TRESK channel current, transiently expressed in CHO-K1 cells (patch clamp); type: cell-based
# T3 construct: expressed in transfected cells; host or cells: CHO-K1 cells (ATCC), transient co-transfection with EGFP plasmid at 9:1
# T3 sequence (Q7Z418 1-384): T1 sequence (Q7Z418 1-384)
# Text: as §5
# [12] = tested on: formaldehyde-induced inflammatory pain; assay: Formalin-induced mouse inflammatory pain model; type: in vivo; conditions: mice, intraperitoneal injection 30 minutes before 1% formaldehyde; 60 minutes observation
# Procedure: A 10% formaldehyde solution was diluted 10 times to prepare a 1% formaldehyde solution. 5% DMSO, 5% Tween-80 and 90% normal saline (a 0.9% NaCl solution) were used to prepare solutions of HJ-70 in 100 mg/kg and 30 mg/kg. Each mouse was administered at a dose of 0.2 mL/10 g at 30 minutes before the experiment, and then 20 μL of 1% formaldehyde solution was injected into the sole of the foot through a microsampling needle to create a formalin model. The number of licking of hind paws, flicking of hind paws, and paw lifting, and the time of paw licking and prolonged paw lifting were recorded within 60 minutes. Paw licking was scored as 3, paw flicking was scored as 2, and paw lifting was scored as 1. The pain behavior score and time were calculated to determine the analgesic activity of HJ-70.
inhibition of Kv2.1 channel-mediated currents [10],"inhibition of TRESK channel current ([11]; 10 μM, CHO-K1 cells, FIG. 5 C and D)",inhibitory activity on TRESK (K2P) compared with hydroxy-α-sanshool ([11]; comparison with reported half-effective dose of hydroxy-α-sanshool),Structure (SMILES),IC50 [1] [µM],IC50 [2] [µM],effect on spontaneous firing of cultured hippocampal neurons [3],effect on evoked action potential firing frequency of DRG [4],"reversibility of IK current inhibition after washout ([5]; DRG neurons, washout, FIG. 2 G)","inhibition of IK current in DRG neurons ([5]; whole-cell patch clamp, 3 μM and 10 μM in FIG. 2)",effect on IA current in DRG neurons [6],inhibition of IK current of hippocampal neurons [7],effect on IA current of hippocampal neurons [8],effect on sodium current in hippocampal neurons [9],"pain behavioral response induced by plantar injection of formalin (licking time, pain score) [12]"
–,–,–,C/C=C/C=C/C=C\CC/C=C/C(=O)NCC(C)(C)O [hydroxy-α-sanshool],~50,~50,–,–,–,–,–,–,–,–,–
completely inhibited,almost completely inhibited,stronger than that of hydroxy-α-sanshool,"O=c1c2ccccc2nc2n1CCc1c-2n(CCCO)c2ccccc12 [HJ-70, N-13-n-propanol rutaecarpine]",–,–,significantly inhibit,significantly inhibited,completely eluted,dose-dependently inhibited,no significant effect,reversibly and dose-dependently inhibited,without affecting,no effect,dose-dependently alleviate
